From publication PMC8033486 (Frontiers in Pharmacology, 2021)
“Also recorded” adds a separate entry of the source. Counter-ions that a name gives are not always drawn. Like-named read-outs stand apart in the source and are kept apart here.

How the values were obtained:
[1] = tested on: lentiviruses pseudotyped with SARS-CoV-2 Spike; type: cell-based
SARS-CoV-2 [2] = assay: microbe, parasite or virus in culture; type: cell-based; conditions: for IC50: read-out: IC50 (Mean +/- SD)
in vitro = conditions: African green monkey
[3] = tested on: lentiviruses pseudotyped with SARS-CoV-2 Spike; type: cell-based; remark: listed apart in the source
SARS-CoV-2 [4] = type: cell-based; conditions: Vero E6, day 3 post-infection, non-toxic concentrations
[5] = CC50, Vero E6, no virus, 3 days

Molecule	Block of SARS-CoV-2 Spike pseudovirus entry, result in words [1]	Inhibition of SARS-CoV-2-induced cytopathic effect, result in words (SARS-CoV-2 [2]; Vero E6)	IC50 (Mean +/- SD) (SARS-CoV-2 [2])	also measured
CCN1CCN(Cc2ccc(Nc3ncc(F)c(-c4cc(F)c5nc(C)n(C(C)C)c5c4)n3)nc2)CC1 [Abenaciclib]				CC50 (Vero E6 cells; Vero E6, no virus, 3 days): > 1 µM
CCOC(=O)c1c(CSc2ccccc2)n(C)c2cc(Br)c(O)c(CN(C)C)c12 [Arbidol HCl]	partial blocking effect	failed to protected Vero E6 cells from SARS-CoV-2 induced cytopathic effect		CC50 at 3 days (in vitro; [5]): > 40 µM
COC(=O)N[C@H](C(=O)N[C@@H](Cc1ccccc1)[C@@H](O)CN(Cc1ccc(-c2ccccn2)cc1)NC(=O)[C@@H](NC(=O)OC)C(C)(C)C)C(C)(C)C.O=S(=O)(O)O [Atazanavir Sulfate]			Not Active	CC50 (Vero E6 cells; Vero E6, no virus, 3 days): > 20 µM
CCCNC(=O)[C@H]1O[C@@H]1C(=O)N[C@H](C(=O)N1CCC[C@H]1C(=O)OC)[C@@H](C)CC [CA-074-Me]	partial blocking effect	could not be confirmed using the specific cathepsin B inhibitor CA-074-Me due to drug-associated toxicity	Not Active	CC50 (Vero E6 cells; Vero E6, no virus, 3 days): > 34 µM
CN(C)C(=O)COC(=O)Cc1ccc(OC(=O)c2ccc(NC(=N)N)cc2)cc1 [Camostat]	failed to inhibit viral fusion; also recorded: displays no activity	no antiviral effect on Vero E6 cells		Block of SARS-CoV-2 Spike pseudovirus entry, result in words [3]: activity was rescued; CC50 (in vitro): > 100 µM
Cl.Cl.O=C(O)COCCN1CCN(C(c2ccccc2)c2ccc(Cl)cc2)CC1 (stereo not drawn) [Cetirizine dihydorcloride]			Not Active	CC50 (Vero E6 cells): > 100 µM
CCN(CC)CCCC(C)Nc1ccnc2cc(Cl)ccc12 (stereo not drawn) [Chloroquine]				Block of SARS-CoV-2 Spike pseudovirus entry, result in words [3]: reduced its inhibitory activity; IC50 (SARS-CoV-2 [2]; Severe acute respiratory syndrome coronavirus 2, Vero C1008, 72 h): 3.9 µM; IC50 (SARS-CoV-2 [2]): 3.86 µM
CC(C)C(=O)OCC(=O)[C@@]12O[C@H](C3CCCCC3)O[C@@H]1C[C@H]1[C@@H]3CCC4=CC(=O)C=C[C@]4(C)[C@H]3[C@@H](O)C[C@@]12C [Ciclesonide]	partial blocking effect	failed to protected Vero E6 cells from SARS-CoV-2 induced cytopathic effect		CC50 at 3 days (in vitro; CC50): > 20 µM
CCOC(=O)[C@H]1O[C@@H]1C(=O)N[C@@H](CC(C)C)C(=O)NCCC(C)C [E-64d]	active when TMPRSS2 is not present	partial inhibitory activity	partialy active at 100	CC50 (Vero E6 cells; Vero E6, no virus, 3 days): > 100 µM
CC(C)OC(=O)C(C)(C)Oc1ccc(C(=O)c2ccc(Cl)cc2)cc1 [Fenofibrate]	viral entry was abrogated			SARS-CoV-2 release to the supernatant (nucleoprotein ELISA), result in words (SARS-CoV-2 [4]): less active inhibiting viral release as compared to the rest of the inhibitors tested; CC50 at 3 days (in vitro): > 100 µM
CCCCN1C[C@H](O)[C@@H](O)[C@H](O)[C@H]1CO [NB-DNJ]	failed to block viral entry	decreased SARS-CoV-2 cytopathic effect	active at 100	CC50 (Vero E6 cells; Vero E6, no virus, 3 days): > 100 µM
CC(C)OC(=O)[C@H](C)N[P@](=O)(CO[C@H](C)Cn1cnc2c(N)ncnc21)Oc1ccccc1 [Tenofovir Alafenamide]			Not Active	Inhibition of SARS-CoV-2-induced cytopathic effect, result in words (SARS-CoV-2 [2]): failed to show any antiviral effect; CC50 (in vitro): > 100 µM
CC(C)OC(=O)OCOP(=O)(CO[C@H](C)Cn1cnc2c(N)ncnc21)OCOC(=O)OC(C)C [Tenofovir disoproxil fumarate]		failed to show any antiviral effect		CC50 (in vitro): > 100 µM
CCC[C@@]1(CCc2ccccc2)CC(O)=C([C@H](CC)c2cccc(NS(=O)(=O)c3ccc(C(F)(F)F)cn3)c2)C(=O)O1 [Tipranavir]		inhibited SARS-CoV-2-induced cytopathic effect at the non-toxic concentration of 20 μM		CC50 at 3 days (in vitro; [5]): > 70 µM
C[C@@H]1CCN(C(=O)CC#N)C[C@@H]1N(C)c1ncnc2[nH]ccc12 [Tofacitinib]		failed to protected Vero E6 cells from SARS-CoV-2 induced cytopathic effect		CC50 at 3 days (in vitro; [5]): > 100 µM
CCCCOc1nc(N)c2c(n1)N(Cc1cccc(CN3CCCC3)c1)CC(=O)N2 [Vesatolimod]		not able to protect from the viral-induced cytopathic effect		CC50 at 3 days (in vitro; [5]): > 20 µM
Alpha-1 Antitrypsin		exerted an effect but required high concentrations		CC50 (Vero E6 cells; Vero E6, no virus): > 12.5 mg/mL; IC50, result in words (SARS-CoV-2 [2]; Vero E6, cytopathic effect): active at 12.5
interferon-γ (protein, UniProt P01579 24-161, looked up) Interferon gamma: QDPYVKEAENLKKYFNAGHSDVADNGTLFLGILKNWKEESDRKIMQSQIVSFYFKLFKNFKDDQSIQKSVETIKEDMNVKFFNSNKKKRDDFEKLTNYSVTDLNVQRKAIHELIQVMAELSPAAKTGKRKRSQMLFRG				CC50 (Vero E6 cells; interferons, Vero E6, no virus, 3 days): > 100 × 10^2 IU/mL
